# According to patent publication US12491252B2, “Substituted 3-amino-5-phenylbenzamide compounds as covalent inhibitors of enhancer zeste homolog 2 (EZH2) and proteolysis-targeting chimeric derivatives thereof (PROTACs) that induce degradation of EZH2” (Northwestern University, priority 2021, dated 2025):
# What was measured:
# EZH2 [1] = target: T1, EZH2 (Homo sapiens, UniProt Q15910); test: Western blot of EZH2 protein in C4-2B cells; details: for Degrading EZH2 protein: FIG. 5, 24 or 48 hours; for Degradation of EZH2: FIG. 14, 10 μM for 6 days
# T1 sequence (Q15910 whole entry): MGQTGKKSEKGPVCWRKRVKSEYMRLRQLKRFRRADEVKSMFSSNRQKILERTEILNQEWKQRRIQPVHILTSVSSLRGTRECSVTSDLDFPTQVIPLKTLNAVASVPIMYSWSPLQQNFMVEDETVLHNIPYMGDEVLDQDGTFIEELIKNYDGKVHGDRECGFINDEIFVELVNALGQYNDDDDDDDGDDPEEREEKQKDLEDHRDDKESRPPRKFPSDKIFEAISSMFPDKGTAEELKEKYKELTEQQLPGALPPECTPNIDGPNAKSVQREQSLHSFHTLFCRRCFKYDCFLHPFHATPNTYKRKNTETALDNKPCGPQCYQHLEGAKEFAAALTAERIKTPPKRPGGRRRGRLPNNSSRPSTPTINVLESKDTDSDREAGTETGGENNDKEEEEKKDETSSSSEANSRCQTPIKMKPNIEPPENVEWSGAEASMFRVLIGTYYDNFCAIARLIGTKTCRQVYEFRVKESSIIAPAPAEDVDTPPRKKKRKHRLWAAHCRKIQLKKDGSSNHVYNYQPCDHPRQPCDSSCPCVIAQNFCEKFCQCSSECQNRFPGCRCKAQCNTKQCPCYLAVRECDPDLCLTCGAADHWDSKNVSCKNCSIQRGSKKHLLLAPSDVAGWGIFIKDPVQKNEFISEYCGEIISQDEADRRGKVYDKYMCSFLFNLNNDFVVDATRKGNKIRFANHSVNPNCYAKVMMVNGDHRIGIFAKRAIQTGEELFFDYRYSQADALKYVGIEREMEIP
# T1 sequence (Q15022 whole entry partner): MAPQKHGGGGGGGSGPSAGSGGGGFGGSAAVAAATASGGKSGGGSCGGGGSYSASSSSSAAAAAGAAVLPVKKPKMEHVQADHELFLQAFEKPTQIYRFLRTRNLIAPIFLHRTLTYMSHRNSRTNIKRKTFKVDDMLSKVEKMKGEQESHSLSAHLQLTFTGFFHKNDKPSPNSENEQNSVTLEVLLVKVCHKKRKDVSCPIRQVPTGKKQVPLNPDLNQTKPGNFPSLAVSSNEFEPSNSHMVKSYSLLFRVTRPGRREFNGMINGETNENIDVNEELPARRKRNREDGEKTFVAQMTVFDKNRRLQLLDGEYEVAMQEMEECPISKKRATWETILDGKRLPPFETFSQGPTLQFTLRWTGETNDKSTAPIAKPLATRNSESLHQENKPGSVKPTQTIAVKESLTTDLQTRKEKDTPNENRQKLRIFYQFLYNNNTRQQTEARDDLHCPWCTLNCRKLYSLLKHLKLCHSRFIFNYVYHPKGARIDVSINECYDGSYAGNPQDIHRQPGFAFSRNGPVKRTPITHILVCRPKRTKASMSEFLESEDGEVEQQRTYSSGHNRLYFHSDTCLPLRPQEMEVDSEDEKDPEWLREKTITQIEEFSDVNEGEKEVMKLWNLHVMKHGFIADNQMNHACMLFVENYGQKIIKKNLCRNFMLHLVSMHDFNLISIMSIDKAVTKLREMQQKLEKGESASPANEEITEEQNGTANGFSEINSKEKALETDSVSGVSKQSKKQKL
# T1 sequence (O75530 whole entry partner): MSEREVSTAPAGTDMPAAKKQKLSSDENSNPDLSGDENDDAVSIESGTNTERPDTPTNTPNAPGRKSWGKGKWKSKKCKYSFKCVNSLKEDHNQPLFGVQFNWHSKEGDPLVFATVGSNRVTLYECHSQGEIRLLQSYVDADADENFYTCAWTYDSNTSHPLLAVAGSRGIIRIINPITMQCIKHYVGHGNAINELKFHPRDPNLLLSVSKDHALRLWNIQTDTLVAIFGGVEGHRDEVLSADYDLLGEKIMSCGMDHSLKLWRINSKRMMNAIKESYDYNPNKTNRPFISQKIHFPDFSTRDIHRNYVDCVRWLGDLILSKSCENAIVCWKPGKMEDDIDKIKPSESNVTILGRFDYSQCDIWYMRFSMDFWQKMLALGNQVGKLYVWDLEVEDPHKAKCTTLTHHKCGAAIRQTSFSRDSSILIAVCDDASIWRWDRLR
# SUZ12 = test: Western blot of SUZ12 in C4-2B cells; format: cell-based; details: FIG. 14, 10 μM for 6 days
# [2] = Pharmacokinetics in mice, IP cassette dosing, plasma LC/MS/MS; format: in vivo, C57Bl/6 mouse; details: mouse, C57Bl/6 mice, 4 mg/kg IP, cassette format
# Experimental: FIG. 35. Pharmacokinetics of indicated compounds. Compounds were administered to C57Bl/6 mouse mice at 4 mg/kg using intraperitoneal (IP) injection in cassette format. Plasma was collected at the indicated time points and analyzed by LC/MS/MS using standard methods.
# For assessing pharmacokinetics, compounds were administered to C57Bl/6 mouse mice at 4 mg/kg using intraperitoneal (IP) injection in cassette format. Plasma was collected at the indicated time points and analyzed by LC/MS/MS using standard methods.
# H3K27me3 = test: Western blot of H3K27me3 levels in C4-2B cells; format: cell-based; details: FIG. 14, 10 μM for 6 days
# C4-2B cells [3] = test: Live imaging cell proliferation of C4-2B cells; format: cell-based; details: FIG. 20A, monitored over 168 hours
# Text: FIG. 20A-20B. (FIG. 20A) Live imaging cell proliferation of C4-2B cells. […] DMSO is set as the negative control. […] (FIG. 20B) Colony assays using C4-2B cells after treatment with the indicated compounds for 7 days.
# EZH2 [4] = target: T1, EZH2; test: Western blot of EZH2 with esiRNA knockdown of VHL or siRNA control; format: cell-based; details: FIG. 16; siRNA control lane; duplicate
# Experimental: FIG. 16. Cells were treated with indicated compounds with either esiRNA knockdown of VHL or siRNA control (no EZH2 knockdown) and blotted for EZH2 and VHL. […] Experiment was run in duplicate with both replicates shown on the left and right sides.
# LNCaP cells [5] = test: Colony assay using LnCaP cells; format: cell-based; details: FIG. 17B, treatment for 7 days
# Experimental: FIG. 17A-17B. (FIG. 17A) Live imaging cell proliferation of LNCaP cells. Cells were treated with indicated compounds and monitored over 168 hours for proliferation by phase object confluence. DMSO is set as the negative control. […] (FIG. 17B) Colony assays using LnCaP cells after treatment with the indicated compounds for 7 days.
# LNCaP cells [6] = test: Live imaging cell proliferation of LNCaP cells; format: cell-based; details: FIG. 17A, monitored over 168 hours
# Text: FIG. 17A-17B. (FIG. 17A) Live imaging cell proliferation of LNCaP cells. […] DMSO is set as the negative control. […] (FIG. 17B) Colony assays using LnCaP cells after treatment with the indicated compounds for 7 days.
# C4-2B cells [7] = test: Colony assay using C4-2B cells; format: cell-based; details: FIG. 20B, treatment for 7 days
# Experimental: FIG. 20A-20B. (FIG. 20A) Live imaging cell proliferation of C4-2B cells. Cells were treated with indicated compounds and monitored over 168 hours for proliferation by phase object confluence. DMSO is set as the negative control. […] (FIG. 20B) Colony assays using C4-2B cells after treatment with the indicated compounds for 7 days.
# EZH2 [8] = target: T1, EZH2; test: Western blot of EZH2 protein in PC3 cells; details: FIG. 26, 6 days treatment
# Text: (Upper right western blot) Western blot analysis of EZH2 protein in PC3 cells after 6 days treatment.
# C4-2B cells [9] = test: Imaging of C4-2B cells (cell density); format: cell-based; details: FIG. 21, 12 days' treatment
# Text: FIG. 21. Imaging of C4-2B cells after 12 days' treatment with the indicated compounds.
# EZH2 [10] = target: T1, EZH2; test: Western blot of EZH2 protein in DU-145 cells; details: FIG. 27, 6 days treatment
# Text: (Upper right western blot) Western blot analysis of EZH2 protein in DU-145 cells after 6 days treatment.
# LNCaP cells [11] = test: Imaging of LnCaP cells (cell density); format: cell-based; details: FIG. 18, 12 days' treatment
# Text: FIG. 18. Imaging of LnCaP cells after 12 days' treatment with the indicated compounds.
# [12] = FIG. 7, 24 hours, 5 μM or 10 μM MG132
# [13] = FIG. 1, increasing doses 24 or 48 hours, or 0.5 μM over a time course
compound,measurement,setting,value
CCN(c1cc(-c2ccc(CN3CCOCC3)cc2)cc(C(=O)NCc2c(C)cc(C)[nH]c2=O)c1C)C1CCN(C(=O)CCCCCCCCCCC(=O)NCCOc2cccc3c2C(=O)N(C2CCC(=O)NC2=O)C3=O)CC1 (stereo not drawn) [Compound 2099],EZH2 protein levels (western blot),"EZH2 [1]; FIG. 28, 24 hours",reduce EZH2 protein levels
CCN(c1cc(-c2ccc(CN3CCOCC3)cc2)cc(C(=O)NCc2c(C)cc(C)[nH]c2=O)c1C)C1CCN(C(=O)CCCCCCCCCCCCCCC(=O)NCCOc2cccc3c2C(=O)N(C2CCC(=O)NC2=O)C3=O)CC1 (stereo not drawn) [Compound 2100],EZH2 protein levels (western blot),"EZH2 [1]; FIG. 28, 24 hours",reduce EZH2 protein levels
CCN(c1cc(-c2ccc(CN3CCN(C(=O)COCC(=O)NCCCC(=O)NCCOc4cccc5c4C(=O)N(C4CCC(=O)NC4=O)C5=O)CC3)cc2)cc(C(=O)NCc2c(C)cc(C)[nH]c2=O)c1C)C1CCOCC1 (stereo not drawn) [Compound 2186],EZH2 protein levels (western blot),"EZH2 [1]; FIG. 28, 24 hours",inactive at degrading EZH2
CCN(c1cc(-c2ccc(N3CCN(C(=O)CCC(=O)NCCCC(=O)NCCCC(=O)NCCCOc4cccc5c4C(=O)N(C4CCC(=O)NC4=O)C5=O)CC3)cc2)cc(C(=O)NCc2c(C)cc(C)[nH]c2=O)c1C)C1CCOCC1 (stereo not drawn) [Compound 2190],EZH2 protein levels (western blot),"EZH2 [1]; FIG. 28, 24 hours",reduce EZH2 protein levels
"CCN(c1cc(-c2ccc(CN3CCN(C(=O)CCCCCCCCCCC(=O)N[C@H](C(=O)N4C[C@H](O)C[C@@H]4C(=O)NCc4ccc(-c5scnc5C)cc4)C(C)(C)C)CC3)cc2)cc(C(=O)NCc2c(C)cc(C)[nH]c2=O)c1C)C1CCOCC1 [Compound 2304, (2R,4R)-1-[(2S)-2-(12-{4-[(3′-{[(4,6-dimethyl-2-oxo-1,2-dihydropyridin-3-yl)methyl]carbamoyl}-5′-[ethyl(oxan-4-yl)amino]-4′-methyl-[1,1′-biphenyl]-4-yl)methyl]piperazin-1-yl}-12-oxododecanamido)-3,3-dimethylbutanoyl]-4-hydroxy-N-{[4-(4-methyl-1,3-thiazol-5-yl)phenyl]methyl}pyrrolidine-2-carboxamide]","EZH2 degradation, comparison within a list of VHL-PROTAC","EZH2 [1]; FIG. 4, 24 hours",most effective
same,Degrading EZH2 protein,EZH2 [1],effective in degrading EZH2 protein
same,"Degrading EZH2 protein, 2304 versus 2305","EZH2 [1]; FIG. 6, 24 or 48 hours",more effective than 2305
same,Restoration of EZH2 by proteasome inhibitor MG132,EZH2 [1]; [12],restored EZH2
same,Restoration of EZH2 by proteasome inhibitor MG132,"EZH2 [1]; FIG. 11, 24 hours, 10 μM MG132",restored EZH2
same,Degradation of EZH2,EZH2 [1],strong degradation of EZH2
same,EZH2 protein levels (western blot),"EZH2 [1]; FIG. 28, 24 hours",significant reduction in EZH2
same,Reduction of PRC2 component SUZ12,SUZ12,reduction of PRC2 component SUZ12
same,half-life,[2],3.5 to 6 h
same,H3K27me3 levels,H3K27me3,reduced H3K27me3 levels
CCN(c1cc(-c2ccc(CN3CCN(C(=O)CCCCCCCCCCCCCCC(=O)N[C@H](C(=O)C4C[C@H](O)C[C@H]4C(=O)NCc4ccc(-c5scnc5C)cc4)C(C)(C)C)CC3)cc2)cc(C(=O)NCc2c(C)cc(C)[nH]c2=O)c1C)C1CCOCC1 (stereo partly drawn) [Compound 2305],EZH2 protein levels (western blot),EZH2 [1]; [13],decreases EZH2 protein levels
same,Rescue of EZH2 protein degradation by proteasome inhibitor MG132,"EZH2 [1]; FIG. 2, 5 μM compound with or without MG132",can be rescued by proteasome inhibitor MG132
same,Degrading EZH2 protein,EZH2 [1],effective in degrading EZH2 protein
same,Restoration of EZH2 by proteasome inhibitor MG132,EZH2 [1]; [12],restored EZH2
same,EZH2 protein levels (western blot),"EZH2 [1]; FIG. 28, 24 hours",significant reduction in EZH2
same,half-life,[2],3.5 to 6 h
CCN(c1cc(-c2ccc(CN3CCN(C(=O)CCCCCCCCCCCCCCC(=O)N[C@H](C(=O)N4C[C@@H](O)C[C@H]4C(=O)NCc4ccc(-c5scnc5C)cc4)C(C)(C)C)CC3)cc2)cc(C(=O)NCc2c(C)cc(C)[nH]c2=O)c1C)C1CCOCC1 [Compound 3571],EZH2 protein levels (western blot),EZH2 [1]; [13],inactive
same,"Degrading EZH2 protein, versus 2305","EZH2 [1]; FIG. 12, 24 hours",less effective than 2305
CCN(c1cc(-c2ccc(CN3CCN(C(=O)CCCCCCCCC(=O)N[C@H](C(=O)N4C[C@H](O)C[C@H]4C(=O)NCc4ccc(-c5scnc5C)cc4)C(C)(C)C)CC3)cc2)cc(C(=O)NCc2c(C)cc(C)[nH]c2=O)c1C)C1CCOCC1 [Compound 6271],Restoration of EZH2 by proteasome inhibitor MG132,"EZH2 [1]; FIG. 11, 24 hours, 10 μM MG132",restored EZH2
CCN(c1cc(-c2ccc(CN3CCN(C(=O)CCCCCCCCCCCC(=O)N[C@H](C(=O)N4C[C@H](O)C[C@H]4C(=O)NCc4ccc(-c5scnc5C)cc4)C(C)(C)C)CC3)cc2)cc(C(=O)NCc2c(C)cc(C)[nH]c2=O)c1C)C1CCOCC1 [Compound 6273],Restoration of EZH2 by proteasome inhibitor MG132,"EZH2 [1]; FIG. 11, 24 hours, 10 μM MG132",restored EZH2
CCN(c1cc(-c2ccc(CN3CCN(C(=O)CCCCCCCCCCC(=O)N[C@H](C(=O)N4C[C@@H](O)C[C@H]4C(=O)NCc4ccc(-c5scnc5C)cc4)C(C)(C)C)CC3)cc2)cc(C(=O)NCc2c(C)cc(C)[nH]c2=O)c1C)C1CCOCC1 [Compound 6285],Degradation of EZH2,EZH2 [1],no ability to degrade EZH2
CCN(c1cc(-c2ccc(CN3CCN(C(=O)CCCCCCCCCC(=O)N[C@H](C(=O)N4C[C@@H](O)C[C@H]4C(=O)NCc4ccc(-c5scnc5C)cc4)C(C)(C)C)CC3)cc2)cc(C(=O)NCc2c(C)cc(C)[nH]c2=O)c1C)C1CCOCC1 [Compound 6286],Cell proliferation by phase object confluence,C4-2B cells [3],limited ability to inhibit cell proliferation
same,Ability to degrade EZH2 with siRNA control (VHL present),EZH2 [4],inactive control
same,Degradation of EZH2,EZH2 [1],no ability to degrade EZH2
same,Colonies,LNCaP cells [5],attenuated anti-proliferative effects
same,Cell proliferation by phase object confluence,LNCaP cells [6],limited ability to inhibit cell proliferation
same,Colonies,C4-2B cells [7],attenuated anti-proliferative effects
same,EZH2 protein (western blot),EZH2 [8],no changes
same,Cell density by imaging,C4-2B cells [9],attenuated anti-proliferative effects
same,EZH2 protein (western blot),EZH2 [10],no changes
same,Cell density by imaging,LNCaP cells [11],attenuated anti-proliferative effects
CCN(c1cc(-c2ccc(CN3CCN(CCCCCCCCCCCC(=O)N[C@H](C(=O)N4C[C@@H](O)C[C@H]4C(=O)NCc4ccc(-c5scnc5C)cc4)C(C)(C)C)CC3)cc2)cc(C(=O)NCc2c(C)cc(C)[nH]c2=O)c1C)C1CCOCC1 [Compound 6300],Cell proliferation by phase object confluence,C4-2B cells [3],limited ability to inhibit cell proliferation
same,Degradation of EZH2,EZH2 [1],no ability to degrade EZH2
same,Colonies,LNCaP cells [5],attenuated anti-proliferative effects
same,Cell proliferation by phase object confluence,LNCaP cells [6],limited ability to inhibit cell proliferation
same,Colonies,C4-2B cells [7],attenuated anti-proliferative effects
same,EZH2 protein (western blot),EZH2 [8],no changes
same,Cell density by imaging,C4-2B cells [9],attenuated anti-proliferative effects
same,EZH2 protein (western blot),EZH2 [10],no changes
same,Cell density by imaging,LNCaP cells [11],attenuated anti-proliferative effects
"Cc1cc(C)c(CNC(=O)c2cc(-c3ccc(N4CCN(CCNC(=O)CC56CC7CC(CC(C7)C5)C6)CC4)nc3)cc3c2cnn3C(C)C)c(=O)[nH]1 [MS1943, reference compound]",Ability to degrade EZH2 at 0.5 μM,"EZH2 [1]; FIG. 28, 24 hours, 0.5 μM",no ability to degrade EZH2
